Laboratory results as given in patent US4950602A, “Inhibition of lactate production by pyruvate adducts” (Cornell Research Foundation, Inc., priority 1987, dated 1990).
“Also recorded” adds a separate entry of the source. Where two headings read alike, the source gives them in different places.

Legend:
[1] = tested on: rat brain lactate dehydrogenase; experiment: Inhibition of rat brain lactate dehydrogenase (rat brain homogenate); assay type: biochemical; details: for Relative Activity (%) Rat Brain: rat brain homogenate, 0.24 mM pyruvate, 0.1 mM NADH, pH 7.2, 25° C.
Protocol: (§1) Each of the enzymes was assayed by procedures in which change of absorbance at 340 nm due to NADH was followed essentially as described by Bergmeyer (1974, Methods of Enzymatic Analysis, 2nd Eng. Ed., Verlag Chemie Weinheim Academic Press, N.Y.) with the following exceptions. Phosphofructokinase was assayed according to the method of Lai et al (1984, J. Neurochem., 42:438-446). NAD^+ -linked isocitrate dehydrogenase was assayed as described by Lai and Clark (1976, Biochem. J., 154:423-432). Pyruvate and α-ketoglutarate dehydrogenase complexes were respectively assayed according to the methods of Lai and Sheu (1985, J. Neurochem., 45:1861-1868) and Lai and Cooper (1986) (J. Neurochem, 47:1376-1386).
The reaction mixture (1 ml) contained 0.24 mM sodium pyruvate, 0.1 mM
NADH, 100 mM potassium phosphate buffer (pH 7.2) and either purified
bovine heart lactate dehydrogenase (0.01 U) or rat brain homogenate
containing ~0.02 U of lactate dehydrogenase activity; 25° C.
Since APADpyruvate adduct and RAP have a tendency to revert to pyruvate
they were added to the reaction mixture just prior to addition of enzyme.
Because the kinetics obtained with tightbinding inhibitors depends on the
order of addition of substrates and inhibitors the enzyme was always adde
last. Each value is the average of at least 3 determinations. Each of the […]

[2] = biological target: T1, α-ketoglutarate dehydrogenase (Rattus norvegicus, UniProt Q5XI78+Q6P6R2); experiment: Rat brain α-ketoglutarate dehydrogenase with RAP; assay type: biochemical; details: 20 μM RAP
T1 construct: following enzymes in rat brain subcellular fractions: α-ketoglutarate; from tissue; host or cells: rat brain subcellular fractions
Protocol: as §1

[3] = biological target: T2, bovine heart α-ketoglutarate dehydrogenase complex (Bos taurus, UniProt F1N206); experiment: Purified bovine heart α-ketoglutarate dehydrogenase complex with RAP; assay type: biochemical; details: 20 μM RAP
T2 construct: purchased Sigma Chemical Company (St. Louis, Mo.); host or cells: bovine heart
Description: (§2) Enzymes and enzyme assays. Rabbit muscle glyceraldehyde-3-phosphate dehydrogenase (80 U/mg: ammonium sulfate suspension), rabbit muscle glycerol-3-phosphate dehydrogenase (40 U/mg; ammonium sulfate suspension),beef liver glutamate dehydrogenase (120 U/mg: in 50% glycerol), mitochondrial pig heart malate dehydrogenase (1100 U/mg; in 50% glycerol) and yeast hexokinase (140 U/mg; ammonium sulfate suspension) were purchased from Boehringer Mannheim Corp. (Indianapolis). Beef heart lactate dehydrogenase (280 U/mg) was purchased from Worthington Biochemical Corporation (Freehold, N.J.). Porcine heart L-alanine aminotransferase (130 U/mg), rabbit muscle phosphofructokinase (140 U/mg; ammonium sulfate suspension), bovine heart α-ketoglutarate (8 U/mg) and pyruvate (5 U/mg) dehydrogenase complexes, sodium pyruvate, L-methionine-SR-sulfoximine, DL-vinylglycine, NAD^+, NADH and NAD^+ analogues (3-acetylpyridine, thionicotinamide, and 3-pyridinealdehyde adenine dinucleotides) were purchased from Sigma Chemical Company (St. Louis, Mo.).
(§3) Each of the enzymes was assayed by procedures in which change of absorbance at 340 nm due to NADH was followed essentially as described by Bergmeyer (1974, Methods of Enzymatic Analysis, 2nd Eng. Ed., Verlag Chemie Weinheim Academic Press, N.Y.) with the following exceptions. […]

[4] = biological target: T3, beef liver glutamate dehydrogenase (Bos taurus, UniProt P00366); experiment: Commercial glutamate dehydrogenase with RAP; assay type: biochemical; details: 20 μM RAP
T3 construct: purchased Boehringer Mannheim Corp. (Indianapolis); host or cells: beef liver
Description: as §2, §3

[5] = biological target: T4, mitochondrial malate dehydrogenase (Rattus norvegicus, UniProt P04636); experiment: Rat brain mitochondrial malate dehydrogenase with RAP; assay type: biochemical; details: 20 μM RAP
T4 construct: Commercial and rat brain glutamate dehydrogenases and mitochondrial malate dehydrogenases were only slightly; from tissue; host or cells: rat brain
Protocol: as §1

[6] = biological target: T5, glyceraldehyde-3-phosphate dehydrogenase (Rattus norvegicus, UniProt P04797); experiment: Rat brain glyceraldehyde-3-phosphate dehydrogenase with RAP; assay type: biochemical; details: 20 μM RAP
T5 construct: from tissue; host or cells: rat brain
Protocol: as §1

[7] = Stability of pyruvate adducts in solution and on storage; assay type: physicochemical; details: neutral ph solution; neutral pH values; read-out: t1/2 of reversion to free pyruvate
Protocol: The procedure used was a modification of that of Everse et al (1971, supra) for the synthesis of the NAD-pyruvate adduct Sodium pyruvate (15 mg) and NAD^+ (or NAD^+ analogue) (100 mg) were dissolved in deaerated water. The pH was brought to 11.0 with concentrated NaOH. After standing at room temperature for one hour, the solution was applied to the top of a column of Whatman DE-52 (2×3 cm), washed with deaerated distilled water. The column was eluted with 30 ml of 25 mM ammonium bicarbonate at 4° C. Unreacted pyruvate, NAD^+ and NAD^+ analogues were eluted in this fraction. The highly-colored (yellow-orange) adducts were eluted with 5-6 ml of 25 mM ammonium bicarbonate containing 4% NaCl. The fraction was split into approximately 1 ml portions, flushed with nitrogen, and stored at -70° C. […] Nevertheless, under the slightly alkaline conditions of storage and low temperature, these adducts remained stable for at least 3 months as judged by their continued potency toward inhibition of lactate dehydrogenase and maintenance of absorbance at 340 nm. […] The presence of a reactive carbonyl function was monitored as follows: 0.2-0.3 μ mole of the adduct was added to 50 μl of 0.1% 2,4-dinitrophenylhdrazine in 2 M HCl. […] The absorbance at 430 nm was compared to equivalent amounts of pyruvate and NAD^+ analogue taken through the same procedure. […]

[8] = biological target: rat brain lactate dehydrogenase; experiment: Inhibition of rat brain lactate dehydrogenase (rat brain homogenate); assay type: biochemical; details: in the presence of either 0.2 or 2 mM pyruvate and 0.1 mM NADH

T4 sequence (P04636 25-338): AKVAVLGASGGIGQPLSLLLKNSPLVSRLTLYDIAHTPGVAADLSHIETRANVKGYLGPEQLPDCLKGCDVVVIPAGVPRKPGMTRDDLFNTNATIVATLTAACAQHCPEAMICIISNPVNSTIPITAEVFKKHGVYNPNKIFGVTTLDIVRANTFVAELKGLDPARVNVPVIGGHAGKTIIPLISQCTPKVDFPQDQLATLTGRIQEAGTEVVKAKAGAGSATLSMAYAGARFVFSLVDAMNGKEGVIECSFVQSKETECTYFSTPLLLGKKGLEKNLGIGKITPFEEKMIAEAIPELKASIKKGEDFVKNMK
T1 sequence (Q5XI78 41-1023): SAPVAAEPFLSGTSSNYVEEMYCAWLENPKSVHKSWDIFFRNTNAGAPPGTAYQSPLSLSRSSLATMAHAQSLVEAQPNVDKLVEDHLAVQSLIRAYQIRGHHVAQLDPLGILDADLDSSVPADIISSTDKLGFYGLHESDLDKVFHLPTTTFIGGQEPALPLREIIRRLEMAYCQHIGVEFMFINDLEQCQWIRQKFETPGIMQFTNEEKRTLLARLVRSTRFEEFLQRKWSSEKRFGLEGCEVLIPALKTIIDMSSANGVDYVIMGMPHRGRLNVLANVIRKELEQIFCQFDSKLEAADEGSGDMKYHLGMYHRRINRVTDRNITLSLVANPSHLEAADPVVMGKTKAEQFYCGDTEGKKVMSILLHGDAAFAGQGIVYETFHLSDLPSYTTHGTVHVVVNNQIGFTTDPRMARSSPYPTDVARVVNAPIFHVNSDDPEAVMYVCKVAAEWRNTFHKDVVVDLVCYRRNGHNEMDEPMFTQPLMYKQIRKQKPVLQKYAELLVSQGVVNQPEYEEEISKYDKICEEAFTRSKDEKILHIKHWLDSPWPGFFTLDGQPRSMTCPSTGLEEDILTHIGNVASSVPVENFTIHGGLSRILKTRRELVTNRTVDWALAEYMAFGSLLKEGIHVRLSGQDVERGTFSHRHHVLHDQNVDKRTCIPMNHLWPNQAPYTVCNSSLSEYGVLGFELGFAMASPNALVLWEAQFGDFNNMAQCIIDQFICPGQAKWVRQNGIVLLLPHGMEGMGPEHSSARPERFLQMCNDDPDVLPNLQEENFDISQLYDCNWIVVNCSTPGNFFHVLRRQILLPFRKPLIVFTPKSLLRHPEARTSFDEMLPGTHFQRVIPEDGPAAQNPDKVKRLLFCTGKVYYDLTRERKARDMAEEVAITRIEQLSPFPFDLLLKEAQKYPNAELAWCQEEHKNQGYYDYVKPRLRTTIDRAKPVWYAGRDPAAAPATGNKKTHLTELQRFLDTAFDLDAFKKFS
T1 sequence (Q01205 69-454 partner): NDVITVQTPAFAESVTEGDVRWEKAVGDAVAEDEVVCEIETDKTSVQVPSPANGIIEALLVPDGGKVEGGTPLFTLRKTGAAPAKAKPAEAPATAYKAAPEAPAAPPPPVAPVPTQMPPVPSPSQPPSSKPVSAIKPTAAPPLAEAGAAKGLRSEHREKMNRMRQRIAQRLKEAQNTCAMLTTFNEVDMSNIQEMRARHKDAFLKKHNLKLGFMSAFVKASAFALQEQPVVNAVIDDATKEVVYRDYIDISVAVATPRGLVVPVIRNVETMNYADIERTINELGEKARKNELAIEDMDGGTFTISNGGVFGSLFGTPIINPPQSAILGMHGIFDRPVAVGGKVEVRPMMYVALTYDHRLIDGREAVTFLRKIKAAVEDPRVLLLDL
T1 sequence (Q6P6R2 36-509): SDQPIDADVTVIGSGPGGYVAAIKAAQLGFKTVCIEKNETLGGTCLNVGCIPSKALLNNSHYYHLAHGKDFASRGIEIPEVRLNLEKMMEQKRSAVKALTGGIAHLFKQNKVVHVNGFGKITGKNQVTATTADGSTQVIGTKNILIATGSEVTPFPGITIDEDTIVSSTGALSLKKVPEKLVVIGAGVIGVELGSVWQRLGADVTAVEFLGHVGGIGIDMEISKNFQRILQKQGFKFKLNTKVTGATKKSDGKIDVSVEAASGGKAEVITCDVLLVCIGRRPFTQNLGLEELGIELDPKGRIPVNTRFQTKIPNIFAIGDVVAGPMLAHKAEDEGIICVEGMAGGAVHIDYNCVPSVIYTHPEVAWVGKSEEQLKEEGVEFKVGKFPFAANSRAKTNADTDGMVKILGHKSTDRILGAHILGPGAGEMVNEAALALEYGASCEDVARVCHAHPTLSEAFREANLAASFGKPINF
T2 sequence (F1N206 36-509, one chain of several): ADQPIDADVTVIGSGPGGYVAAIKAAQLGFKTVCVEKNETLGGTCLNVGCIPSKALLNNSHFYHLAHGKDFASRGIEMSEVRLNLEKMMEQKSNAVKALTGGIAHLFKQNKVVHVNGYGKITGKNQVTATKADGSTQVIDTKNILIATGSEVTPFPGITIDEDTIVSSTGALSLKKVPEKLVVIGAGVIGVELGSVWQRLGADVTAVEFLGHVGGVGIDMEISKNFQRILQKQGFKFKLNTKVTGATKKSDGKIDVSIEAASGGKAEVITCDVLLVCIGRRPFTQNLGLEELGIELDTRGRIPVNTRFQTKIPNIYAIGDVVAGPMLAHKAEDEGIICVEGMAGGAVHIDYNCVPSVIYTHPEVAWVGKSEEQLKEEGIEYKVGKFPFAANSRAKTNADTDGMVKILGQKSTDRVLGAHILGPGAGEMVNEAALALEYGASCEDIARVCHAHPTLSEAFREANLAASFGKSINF
T5 sequence (P04797 whole entry): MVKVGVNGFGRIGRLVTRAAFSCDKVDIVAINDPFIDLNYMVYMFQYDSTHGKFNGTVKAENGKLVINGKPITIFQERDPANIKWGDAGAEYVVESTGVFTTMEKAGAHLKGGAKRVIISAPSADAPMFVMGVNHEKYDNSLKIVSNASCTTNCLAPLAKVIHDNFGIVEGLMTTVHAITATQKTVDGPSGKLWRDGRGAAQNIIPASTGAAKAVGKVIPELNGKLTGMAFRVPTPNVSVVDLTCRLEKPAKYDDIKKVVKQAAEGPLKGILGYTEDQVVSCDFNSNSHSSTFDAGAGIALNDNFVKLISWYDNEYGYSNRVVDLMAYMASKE
T3 sequence (P00366 58-558): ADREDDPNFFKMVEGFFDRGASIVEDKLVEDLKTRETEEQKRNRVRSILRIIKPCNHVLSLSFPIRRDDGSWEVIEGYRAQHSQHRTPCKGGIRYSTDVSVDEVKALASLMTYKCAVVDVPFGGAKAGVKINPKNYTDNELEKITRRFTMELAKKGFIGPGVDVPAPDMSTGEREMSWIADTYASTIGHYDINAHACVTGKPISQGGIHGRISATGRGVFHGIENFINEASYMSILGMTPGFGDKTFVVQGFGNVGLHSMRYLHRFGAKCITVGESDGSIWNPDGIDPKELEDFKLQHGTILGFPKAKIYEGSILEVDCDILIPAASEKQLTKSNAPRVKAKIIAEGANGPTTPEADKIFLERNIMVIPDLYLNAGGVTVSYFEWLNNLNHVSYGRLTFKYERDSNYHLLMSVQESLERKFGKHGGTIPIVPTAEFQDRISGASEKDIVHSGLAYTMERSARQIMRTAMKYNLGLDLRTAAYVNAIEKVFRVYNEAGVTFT

For `Nc1ncnc2c1ncn2[C@@H]1O[C@H](COP(=O)(O)OP(=O)(O)OC[C@H]2O[C@@H](N3C=CC(CC(=O)C(=O)O)C(C=O)=C3)[C@H](O)[C@@H]2O)[C@@H](O)[C@H]1O` (stereo partly shown) [RAP, 3(-4-(reduced 3-pyridinealdehyde-adeninedinucleotide))-pyruvate], which “Relative Activity (%) Rat Brain” value ([1]; additive 42 nM) is on record?
Its value is 80%.

And the “Relative Activity (%) Rat Brain” value ([1]; additive 84 nM)?
The value was 56%.

And the “Relative Activity (%) Rat Brain” value ([1]; additive 132 nM)?
Its value is 43%.

And the “Relative Activity (%) Rat Brain” value ([1]; additive 180 nM)?
The value was 30%.

What about the IC50 ([1]; standard reaction of Table 1, read-out: concentration required to inhibit the standard reaction by 50%) of the same compound?
Its IC50 is about 100 nM.

What about the “effect on rat brain α-ketoglutarate dehydrogenase” value [2] of the same compound?
Its value is “little or no effect; also recorded: did not inhibit”.

And the “effect on purified bovine heart α-ketoglutarate dehydrogenase complex” value [3]?
Its value is “nor did 20 μM RAP inhibit”.

And the inhibition at 20 µM [4]?
The inhibition at 20 µM was at most 20%.

And the “effect on rat brain mitochondrial malate dehydrogenase” value [5]?
The value was “little or no effect”.

What about the inhibition at 20 µM [5] of the same compound?
Its inhibition at 20 µM is at most 20%.

And the “effect on rat brain glyceraldehyde-3-phosphate dehydrogenase” value [6]?
The value was “little or no effect”.

And the half-life [7]?
Its half-life is 1.5 h.

What about the IC50 [8] of the same compound?
Its IC50 is about 100 nM.
